From PMC4743981, “Immunomodulatory and Anti-Inflammatory Activities of Chicken Cathelicidin-2 Derived Peptides” (PLoS ONE, 2016)
Like-named read-outs stand apart in the source and are kept apart here. Ends that are not written are not given here.

Legend:
[1] = test system: Avian pathogenic Escherichia coli O78; assay type: cell-based; conditions: Avian pathogenic O78, 3 h
Experimental: Avian pathogenic Escherichia coli O78 (field isolate, Zoetis, Kalamazoo, MI) was cultured in Mueller-Hinton broth at 37°C. Overnight grown cultures were diluted to a density of 2×10^6 CFU/ml in Mueller-Hinton broth (non cation-adjusted, Oxoid Ltd., Hampshire, UK) and mixed in a 96 wells polypropylene microwell plate at a 1:1 ratio with peptide (final concentration: 1.25 to 40 μM). After 3 h incubation samples were serially diluted in medium, plated on trypton soy agar (Oxoid Ltd., Hampshire, UK) media and counted after 24 h incubation at 37°C.

S. minnesota LPS = assay: LPS binding affinity, dansyl-polymyxin B displacement; parameters: species or system Salmonella minnesota; conditions: concentration of peptide needed to displace 50% of Dansyl-labeled polymyxin from S. minnesota LPS micelles, unsubstituted (Phe) peptide, read-out: I50 (Phe)
Experimental: Dansyl-polymyxin B was prepared and quantitated as described by Schindler and Teuber. Subsequently, the capacity of peptides to displace dansyl-labeled polymyxin B complexed to S. minnesota LPS was determined according to Moore et al..

CXCLi2/IL-8 = assay: Peptide-induced CXCLi2 transcription in HD11 cells (real time PCR); assay type: cell-based, chicken; conditions: 1 to 20 μM peptide, 4 h or 24 h, real time QPCR
Experimental: (§1) HD11 cells were a kind gift of dr. Jos van Putten (department of Infectious diseases and Immunology, Utrecht University, The Netherlands). HD11 cells were seeded in 96 wells tissue culture treated plates (1×10^5 cell/mL) and incubated for 18 h at 37°C (5% CO2) before treatment. For peptide-induced effects cells were treated with RPMI-1640 medium containing 20 μM peptide during 4 h or 24 h. In LPS neutralization experiments, final concentrations of 50–100 ng/ml LPS were pre-incubated with or without 20 μM peptide for 30 min at 37°C (5% CO2), applied to the cells and incubated for 4 h. To examine neutralization of LPS-primed cells HD11 cells were exposed for 30 min to 100–1000 ng/ml S. minnesota LPS, washed once and incubated during 4 h in the absence or presence of 20 μM Peptide. Supernatants were collected for the determination of nitric oxide production (24 h incubations only). […] RNA quantity and purity were tested using a Nanodrop ND-1000 spectrophometer (Nanodrop Technologies, Wilmington, DE). Cytotoxicity of peptides was determined using the cell viability reagent WST-1 (Roche) as described previously, and by measuring LDH release after 24 h exposure. LDH activities in supernatant cell fractions were measured using the Cytoxicity Detection Kit PLUS (Roche) according the manufacturers recommendations and expressed as the % of released LDH relative to the total LDH activity. […]

MCP-3 = assay: Peptide-induced MCP-3 transcription in HD11 cells (real time PCR); assay type: cell-based, chicken; conditions: 1 to 20 μM peptide, 4 h or 24 h, real time QPCR
Experimental: as §1

[2] = test system: NO production by HD11 cells; assay: Peptide-induced nitric oxide production by HD11 cells (Griess); assay type: cell-based, chicken; conditions: 24 h exposure to 20 μM peptide without LPS, data not shown
Experimental: HD11 cells were a kind gift of dr. Jos van Putten (department of Infectious diseases and Immunology, Utrecht University, The Netherlands). HD11 cells were seeded in 96 wells tissue culture treated plates (1×10^5 cell/mL) and incubated for 18 h at 37°C (5% CO2) before treatment. For peptide-induced effects cells were treated with RPMI-1640 medium containing 20 μM peptide during 4 h or 24 h. In LPS neutralization experiments, final concentrations of 50–100 ng/ml LPS were pre-incubated with or without 20 μM peptide for 30 min at 37°C (5% CO2), applied to the cells and incubated for 4 h. […] RNA quantity and purity were tested using a Nanodrop ND-1000 spectrophometer (Nanodrop Technologies, Wilmington, DE). Cytotoxicity of peptides was determined using the cell viability reagent WST-1 (Roche) as described previously, and by measuring LDH release after 24 h exposure. LDH activities in supernatant cell fractions were measured using the Cytoxicity Detection Kit PLUS (Roche) according the manufacturers recommendations and expressed as the % of released LDH relative to the total LDH activity.
Nitric oxide production was assessed as the accumulation of nitrite (NO2^−) in cell supernatants during a 24 h incubation period. Nitrite concentrations were determined using a colorimetric reaction with the Griess reagent using (from 1 to 50 μM) sodium nitrite dissolved in water as standards. […]

[3] = test system: IL-1β transcription in LPS-primed HD11 cells; assay: Neutralization of IL-1β transcription in LPS-primed HD11 cells; assay type: cell-based, chicken; conditions: HD11 cells primed 30 min with S. minnesota LPS (100–1000 ng/ml), washed once, 4 h with 20 μM peptide; real time QPCR
Experimental: as §1

Molecule	MIC [1] [µM]	other results
RYLRKIRRYRPKVTITIQ-NH2 [C(4–21)Y2]	10.0 ± 0.0	–
RFGRFLRKIRRFRPKVTITIQ-NH2 [C(1–21)]	13.3 ± 5.8	–
RFRPKVTITIQ-NH2 [C(11–21)]	8.3 ± 2.9	–
RRFRPKVTITIQ-NH2 [C(10–21)]	6.7 ± 2.9	–
FLRKIRRFRPKVTITIQ-NH2 [C(5–21)]	8.3 ± 5.8	–
RFGRFLRKIRRFRPK [C(1–15)]	16.7 ± 5.8	–
RFGRFLRKIRRFRPKVTITIQGSARF-NH2 [CATH-2]	5.0 ± 0.0	–
Polymyxin B	–	IC50 (S. minnesota LPS; listed as polymyxin B): 4.19 µM; IC50 (S. minnesota LPS): 3.46 ± 0.17 µM
RKIRRWRPKVTITIQ-NH2 [C(7–21)W]	13.3 ± 5.8	–
KIRRFRPKVTITIQ-NH2 [C(8–21)]	11.7 ± 7.6	–
RKIRRFRPKVTITIQ-NH2 [C(7–21)]	8.3 ± 2.9	–
RWLRKIRRWRPKVTITIQ-NH2 [C(4–21)W2]	8.3 ± 2.9	–
CC[C@H](C)[C@H](NC(=O)[C@H](CCCCN)NC(=O)[C@H](CCC(=O)O)NC(=O)[C@H](CCCCN)NC(=O)[C@H](CO)NC(=O)[C@H](CCCCN)NC(=O)[C@H](CCCNC(=N)N)NC(=O)[C@H](Cc1ccccc1)NC(=O)[C@H](Cc1ccccc1)NC(=O)[C@H](CC(=O)O)NC(=O)CNC(=O)[C@H](CC(C)C)NC(=O)[C@@H](N)CC(C)C)C(=O)NCC(=O)N[C@@H](CCCCN)C(=O)N[C@@H](CCC(=O)O)C(=O)N[C@@H](Cc1ccccc1)C(=O)N[C@@H](CCCCN)C(=O)N[C@@H](CCCNC(=N)N)C(=O)N[C@H](C(=O)N[C@H](C(=O)N[C@@H](CCC(N)=O)C(=O)N[C@@H](CCCNC(=N)N)C(=O)N[C@H](C(=O)N[C@@H](CCCCN)C(=O)N[C@@H](CC(=O)O)C(=O)N[C@@H](Cc1ccccc1)C(=O)N[C@@H](CC(C)C)C(=O)N[C@@H](CCCNC(=N)N)C(=O)N[C@@H](CC(N)=O)C(=O)N[C@@H](CC(C)C)C(=O)N[C@H](C(=O)N1CCC[C@H]1C(=O)N[C@@H](CCCNC(=N)N)C(=O)N[C@H](C(=O)N[C@@H](CCC(=O)O)C(=O)N[C@@H](CO)C(=O)O)[C@@H](C)O)C(C)C)[C@@H](C)CC)C(C)C)[C@@H](C)CC [LL37]	–	IC50 (S. minnesota LPS): 0.28 ± 0.04 µM; induction of CXCLi2 transcription (in words) (CXCLi2/IL-8): inducing the transcription; induction of MCP-3 transcription (in words) (MCP-3): inducing the transcription; increase of NO levels [2]: 2 fold; inhibition of IL-1β transcription induced by LPS priming (in words) [3]: strongly inhibited
RRWRPKVTITIQ-NH2 [C(10–21)W]	11.7 ± 7.6	–
RKIRRYRPKVTITIQ-NH2 [C(7–21)Y]	11.7 ± 7.6	–
IRRFRPKVTITIQ-NH2 [C(9–21)]	8.3 ± 2.9	–
RYGRYLRKIRRYRPKVTITIQ-NH2 [C(1–21)Y3]	10.0 ± 0.0	–
RRYRPKVTITIQ-NH2 [C(10–21)Y]	16.7 ± 5.8	–
RWGRWLRKIRRWRPKVTITIQ-NH2 [C(1–21)W3]	13.3 ± 5.8	–
RFLRKIRRFRPKVTITIQ-NH2 [C(4–21)]	6.7 ± 2.9	–
